In ChEMBL document CHEMBL1149662, “Design and synthesis of a library of tertiary amides: evaluation as mimetics of the melanocortins' active core” (Bioorg Med Chem, 2007):

Key:
Melanocortin receptor 4 = Melanocortin receptor 4 (Homo sapiens, UniProt P32245); experiment: Displacement of [125I]NDP-MSH from human recombinant MC4 receptor expressed in Sf9 cells
Melanocortin receptor 5 = Melanocortin receptor 5 (Homo sapiens, UniProt P33032); experiment: Displacement of [125I]NDP-MSH from human recombinant MC5 receptor expressed in Sf9 cells
[1] = molecular target: Melanocyte-stimulating hormone receptor (Mus musculus, UniProt Q01727); experiment: Displacement of [125I]NDP-MSH from MC1 receptor in mouse B16 cells; assay type: cell-based
Melanocortin receptor 3 = Melanocortin receptor 3 (Homo sapiens, UniProt P41968); experiment: Displacement of [125I]NDP-MSH from human recombinant MC3 receptor expressed in Sf9 cells
Sequence of Melanocortin receptor 3 (P41968 whole entry): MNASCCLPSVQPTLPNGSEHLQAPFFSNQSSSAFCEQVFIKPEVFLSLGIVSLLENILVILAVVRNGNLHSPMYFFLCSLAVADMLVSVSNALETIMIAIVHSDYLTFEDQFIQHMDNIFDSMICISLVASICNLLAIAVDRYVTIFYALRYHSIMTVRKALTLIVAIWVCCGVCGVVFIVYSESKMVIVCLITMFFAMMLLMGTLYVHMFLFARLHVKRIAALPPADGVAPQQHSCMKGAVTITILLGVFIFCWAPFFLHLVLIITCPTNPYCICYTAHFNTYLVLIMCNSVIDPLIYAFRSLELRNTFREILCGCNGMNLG

Sequence of Melanocyte-stimulating hormone receptor (Q01727 whole entry): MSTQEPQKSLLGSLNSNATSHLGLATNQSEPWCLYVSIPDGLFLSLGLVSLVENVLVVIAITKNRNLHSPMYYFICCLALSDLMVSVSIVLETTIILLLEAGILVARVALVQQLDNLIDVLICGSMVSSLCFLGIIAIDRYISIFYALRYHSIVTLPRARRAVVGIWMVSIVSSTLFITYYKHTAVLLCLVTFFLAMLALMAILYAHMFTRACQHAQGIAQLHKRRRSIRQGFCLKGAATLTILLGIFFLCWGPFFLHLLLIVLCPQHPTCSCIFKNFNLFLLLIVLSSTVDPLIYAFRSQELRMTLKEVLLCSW
Sequence of Melanocortin receptor 5 (P33032 whole entry): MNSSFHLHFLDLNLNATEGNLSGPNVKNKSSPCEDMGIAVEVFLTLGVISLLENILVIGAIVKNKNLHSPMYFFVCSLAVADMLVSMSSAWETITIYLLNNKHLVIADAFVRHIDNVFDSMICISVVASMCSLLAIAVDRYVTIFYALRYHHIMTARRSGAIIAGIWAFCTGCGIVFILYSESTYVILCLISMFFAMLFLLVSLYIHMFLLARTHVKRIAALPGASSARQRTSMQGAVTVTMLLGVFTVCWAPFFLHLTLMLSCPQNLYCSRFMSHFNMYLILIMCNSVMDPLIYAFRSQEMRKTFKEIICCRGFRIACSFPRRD
Sequence of Melanocortin receptor 4 (P32245 whole entry): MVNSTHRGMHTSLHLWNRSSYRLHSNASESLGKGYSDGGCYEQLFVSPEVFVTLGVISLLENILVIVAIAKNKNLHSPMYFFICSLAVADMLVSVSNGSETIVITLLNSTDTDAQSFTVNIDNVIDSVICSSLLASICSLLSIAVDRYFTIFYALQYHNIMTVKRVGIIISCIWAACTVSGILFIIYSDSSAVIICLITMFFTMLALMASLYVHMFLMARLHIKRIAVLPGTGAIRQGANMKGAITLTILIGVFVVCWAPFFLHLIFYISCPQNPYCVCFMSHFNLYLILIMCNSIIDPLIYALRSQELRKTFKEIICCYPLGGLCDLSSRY

Row | Compound | Ki (Melanocortin receptor 4) [µM] | Ki (Melanocortin receptor 5) [µM] | Ki [1] [µM] | Ki (Melanocortin receptor 3) [µM]
1 | NCCCCCN(Cc1ccccc1)C(=O)[C@@H](N)Cc1ccc2ccccc2c1 | 21 | 34 | 10 | 39
2 | NCCCN(C(=O)c1c[nH]c2ccccc12)C1CCc2ccccc2C1 (configuration not stated) | 74 | 23 | 4.8 | 131
3 | CC(C)N(CCCCN)C(=O)c1c(Cc2ccc(O)cc2)[nH]c2ccccc12 | 165 | 353 | 90 | 106
4 | CC1CC(CC2CCC(N(Cc3ccccc3)C(=O)CCCc3c[nH]c4ccccc34)C(C)C2)CCC1N (stereo in doubt; form 4) | 3.8 | 5.6 | 1.3 | 12
5 | COc1cc(Br)c(/C=C/CN(C(=O)CCCc2c[nH]c3ccccc23)C2CCC(CC3CCC(N)CC3)CC2)cc1OC (configuration not stated) | 3.2 | 266 | 2 | 14
6 | NCCCCCN(Cc1ccc2ccccc2c1)C(=O)CCc1c[nH]c2ccccc12 | 62 | 7.3 | 14 | 58
7 | NC1CCC(CC2CCC(N(Cc3c(F)cccc3F)C(=O)CCCc3c(Cc4ccc(O)cc4)[nH]c4ccccc34)CC2)CC1 (configuration not stated) | 3 | 21 | 2.1 | 65
8 | N=C(N)NCCN(Cc1ccc2ccccc2c1)C(=O)CCc1c[nH]c2ccccc12 | 149 | 17 | 14 | 65
9 | NCCCN(C/C=C/c1ccccc1)C(=O)C(=O)c1c[nH]c2ccccc12 | 5 | 4.9 | 1.6 | 17
10 | NCCCCCCN(Cc1ccccc1)C(=O)CCCc1c[nH]c2ccccc12 | 3.4 | 3.8 | 13 | 43
11 | NCCCCCN(Cc1ccccc1)C(=O)CCCc1c[nH]c2ccccc12 | 6.4 | 4.6 | 3.2 | 15
12 | NC1CCC(CC2CCC(N(Cc3ccccc3F)C(=O)CCCc3c[nH]c4ccccc34)CC2)CC1 (configuration not stated) | 3.7 | 7.2 | 2.4 | 20
13 | NC1CCC(CC2CCC(N(C/C(Cl)=C/c3ccccc3)C(=O)COc3ccc4ccccc4c3)CC2)CC1 (stereo in doubt; form 5) | 3.5 | 6.7 | 1.9 | 22
14 | Cc1ccc(CN(C(=O)CCCc2c[nH]c3ccccc23)C2CCC(CC3CCC(N)CC3)CC2)cc1 (configuration not stated) | 2.1 | 10 | 1.3 | 220
15 | NCCCN(C/C(Cl)=C/c1ccccc1)C(=O)C(=O)c1c[nH]c2ccccc12 | 6.8 | 4.3 | 1 | 7.4
16 | NC1CCC(CC2CCC(N(C/C(Cl)=C/c3ccccc3)C(=O)c3cc4cc(OCc5ccccc5)ccc4[nH]3)CC2)CC1 (configuration not stated) | 4.8 | 12 | 4.2 | 12
17 | N=C(N)NCCCN(Cc1ccc2ccccc2c1)C(=O)Cc1c[nH]c2ccccc12 | 150 | 28 | 35 | 228
18 | CC(C)N(CCCCN)C(=O)c1c[nH]c2ccccc12 | 222 | 279 | 106 | 112
19 | NCCCCCN(Cc1ccc2c(c1)OCO2)C(=O)CCCc1c[nH]c2ccccc12 | 12 | 23 | 5.5 | 38
20 | N[C@@H]1CCCC[C@H]1N(C/C=C/c1ccccc1)C(=O)CCCc1c[nH]c2ccccc12 | 116 | 555 | 12 | 62
21 | NCCCN(C/C=C/c1ccccc1)C(=O)c1c[nH]c2ccccc12 | 23 | 12 | 17 | 172
22 | COc1cc(Cl)c(CN(C(=O)CCCc2c(Cc3ccc(O)cc3)[nH]c3ccccc23)C2CCC(CC3CCC(N)CC3)CC2)cc1OC (configuration not stated) | 1.9 | 11 | 0.63 | 8.3
23 | NCCCCCN(Cc1ccc2ccccc2c1)C(=O)Cc1c[nH]c2ccccc12 | 13 | 5.2 | 1.5 | 50
24 | NCCCCCN(C/C(Cl)=C\c1ccccc1)C(=O)CCCc1c[nH]c2ccccc12 | 2.3 | 28 | 0.77 | 5.4
25 | NC1CCC(CC2CCC(N(Cc3ccccc3Cl)C(=O)CCCc3c(Cc4ccc(O)cc4)[nH]c4ccccc34)CC2)CC1 (configuration not stated) | 14 | 97 | 6.6 | 26
26 | NC1CCCC(NC(=O)NC2CCCC(N(Cc3ccccc3)C(=O)CCCc3c[nH]c4ccccc34)C2)C1 (configuration not stated) | 5.3 | 49 | 2.2 | 57
27 | COc1ccccc1/C=C/CN(C(=O)CCCc1c[nH]c2ccccc12)C1CCC(CC2CCC(N)CC2)CC1 (stereo in doubt; form 2) | 4.1 | 5 | 1.6 | 31

Row | Compound | Ki (Melanocortin receptor 4) [µM] | Ki (Melanocortin receptor 5) [µM] | Ki [1] [µM] | Ki (Melanocortin receptor 3) [µM]
28 | C/C(=C/c1ccccc1)CN(CCCCCN)C(=O)CCCc1c[nH]c2ccccc12 | 4.7 | 8.7 | 3.5 | 22
29 | NCCCCCN(Cc1ccccc1)C(=O)[C@@H](N)Cc1c[nH]c2ccccc12 | 44 | 54 | 34 | 43
30 | NCCCCCN(C(=O)Cc1c[nH]c2ccccc12)C1CCCCCC1 | 16 | 35 | 6 | 14
31 | COc1cc(Br)c(CN(C(=O)CCCc2c(Cc3ccc(O)cc3)[nH]c3ccccc23)[C@H]2CC[C@@H](C[C@H]3CC[C@H](N)CC3)CC2)cc1OC | 7.4 | 9.1 | 2.9 | 5.4
32 | COc1cc(O)ccc1/C=C/CN(C(=O)CCCc1c[nH]c2ccccc12)C1CCC(CC2CCC(N)CC2)CC1 (stereo in doubt; form 2) | 8 | 11 | 3.3 | 51
33 | CC(c1ccc2ccccc2c1)N(CCN)C(=O)Cc1c[nH]c2ccccc12 (configuration not stated) | 11 | 19 | 4.4 | 11
34 | CCOc1cc(CN(C(=O)CCCc2c[nH]c3ccccc23)C2CCC(CC3CCC(N)CC3)CC2)ccc1OC (configuration not stated) | 2.1 | 9.5 | 2.9 | 16
35 | NC1CCCC(N(C/C(Cl)=C/c2ccccc2)C(=O)CCCc2c[nH]c3ccccc23)C1 (configuration not stated) | 2.1 | 10 | 2.8 | 29
36 | NCCCCN(Cc1ccccc1)C(=O)CCCc1c[nH]c2ccccc12 | 17 | 20 | 12 | 38
37 | N[C@H]1CC[C@H](N(C/C(Cl)=C/c2ccccc2)C(=O)CCCc2c[nH]c3ccccc23)CC1 | 3.2 | 10 | 2.8 | 10
38 | NC(N)=NCCCN(Cc1ccc2ccccc2c1)C(=O)CCCc1c[nH]c2ccccc12 | 6 | 6.1 | 1.9 | 7.5
39 | N#Cc1ccc(CN(C(=O)CCCc2c[nH]c3ccccc23)C2CCC(CC3CCC(N)CC3)CC2)cc1 (stereo in doubt; form 2) | 1.6 | 3.9 | 1.5 | 20
40 | NC1CCC(CC2CCC(N(C/C(Cl)=C/c3ccccc3)C(=O)CCCc3c[nH]c4ccccc34)CC2)CC1 (stereo in doubt; form 4) | 5.6 | 4.9 | 1.4 | 31
41 | NCCCN(C/C=C/c1ccccc1)C(=O)CCc1c[nH]c2ccccc12 | 81 | 11 | 21 | 65
42 | NCCCN(C(=O)/C=C/c1c[nH]c2ccccc12)C1CCc2ccccc2C1 (configuration not stated) | 11 | 12 | 6 | 48
43 | NCCCN(Cc1ccccc1)C(=O)CCCc1c[nH]c2ccccc12 | 16 | 25 | 17 | 45
44 | NCCCCCCN(Cc1ccccc1)C(=O)CCCc1c(Cc2ccc(O)cc2)[nH]c2ccccc12 | 3.7 | 2.1 | 2.3 | 36
45 | NCCCCCN(C(=O)COc1ccc2ccccc2c1)C1CCC2(CC=CCC2)CC1 (configuration not stated) | 5.9 | 8 | 7.4 | 3.7
46 | COc1cc(Cl)c(CN(C(=O)CCCc2c[nH]c3ccccc23)C2CCC(CC3CCC(N)CC3)CC2)cc1OC (stereo in doubt; form 1) | 2.3 | 4.3 | 2.1 | 24
47 | NCCN(Cc1ccc2ccccc2c1)C(=O)c1c[nH]c2ccccc12 | 66 | 27 | 3.6 | 134
48 | NCCCCCN(C/C=C\c1ccccc1)C(=O)CCCc1c[nH]c2ccccc12 | 16 | 2.2 | 3 | 36
49 | NCCCN1CCN(CCCN(C/C(Cl)=C/c2ccccc2)C(=O)CCCc2c[nH]c3ccccc23)CC1 | 9.2 | 6.6 | 4.6 | 78
50 | NC1CCC(CC2CCC(N(Cc3ccccc3)C(=O)CCCc3c[nH]c4ccccc34)CC2)CC1 (stereo in doubt; 10d-40-8) | 8.3 | 18 | 0.42 | 9.4
51 | C/C(=C\c1ccccc1)CN(CCCN)C(=O)Cc1c[nH]c2ccccc12 | 67 | 89 | 9.3 | 44
52 | NCCCCN(C/C=C/c1ccccc1)C(=O)CCc1c[nH]c2ccccc12 | 18 | 10 | 8.3 | 67
53 | NC1CCC(CC2CCC(N(C/C(Cl)=C/c3ccccc3)C(=O)CCCc3c[nH]c4ccccc34)CC2)CC1 (stereo in doubt; form 5) | 6 | 3.2 | 0.61 | 21
